Columns and labels:
[1] = test system: Letal mRNA in A2008 ovarian carcinoma cell line; experiment: Letal mRNA expression in treated A2008 cells, real-time quantitative RT-PCR (TaqMan); type: cell-based, human
Protocol: Quantification of Letal by real-time quantitative RT-PCR. Letal expression was analyzed by TaqMan analysis as previously described (Garcia et al, FASEB J 15(10):1819-1821 (2001)). The Letal system consisted of the primers: Letal.F, 5′-[…]-3′ (SEQ ID NO:13); Letal.R, 5′-[…]-3′ (SEQ ID NO:14), and the probe Letal.P, 5′-(FAM)[…] (SEQ ID NO:15) (TAMRA)-3′. The cDNA load was normalized to human GAPDH with primers GAPDH F: 5′-[…]-3′ (SEQ ID NO:16) and GAPDH R: 5′[…]-3′ (SEQ ID NO:17) and the probe GAPDH.P: 5′(FAM) […] (TAMRA)-3′ (SEQ ID NO:18).
Tissues, cell lines and purification of cells. Normal human tissues were obtained from the Cooperative Human Tissue Network (Zhang et al, N. Engl. J. Med. 348(3):203-213 (2003)). A2008 ovarian carcinoma cell line was treated for 24 h with serum-free medium (control) or serum-free medium containing either 10 U/ml interleukin (IL)-1β, 10 ng/ml tumor necrosis factor (TNF-α), 40 ng/ml interferon (IFNγ), 0.5 μg/ml Lypopolyssaccaride (LPS), or 10 ng/ml TNF-α plus 40 ng/ml IFN-γ. 10 ng/ml PMA was kept for 4 hs and retinoic acid for 24, 48, and 72 hs. All the cytokines were from Peprotech (Rocky Hill, N.J.), except retinoic acid (Sigma, St Louis, Mo.). Additionally, cells were cultured in media without glucose for 48 hs or under hypoxia (1.5% O2) for 16 hs. Fresh peripheral blood lymphocytes were obtained by leukapheresis and elutriation. […]

[2] = test system: NKG2D on peripheral CD8^+ T-cells; experiment: NKG2D expression on CD8+ lymphocytes after co-culture with K32 aAPCs, flow cytometry; type: cell-based, human; conditions: peripheral CD8^+ T-cells co-cultured 4 days with K32 aAPCs; versus mock-transduced K32
Description: (§1) CD8^+ lymphocyte stimulation and cytokine release. To analyze the effects of Letal on the T-cell proliferation and production of cytokines, a previously described artificial antigen-presenting cell (aAPC) model was used (Maus et al, Nat. Biotechnol. 20(2):143-148 (2002)). Briefly, the system is based on the stable expression of the human low-affinity Fcγ receptor, CD32, on K562 cells (K32 cell line). K32 cell-based aAPCs were additionally transduced with Letal or with the empty vector as described above, irradiated with 100Gy, and washed twice with RPMI medium. Letal^+-K32 cells or mock transductants were loaded, when indicated, with anti-CD3 (OKT3), or anti-CD3 plus anti-CD28 (mAbs; 9.3) monoclonal antibodies at 0.5 μg/ml for 10 min at room temperature. Loaded &APCs were mixed with CD8^+ T-cells at a 1:2 ratio and the T-cell concentration was maintained at 0.5×10^6 cells/ml throughout the culture. Cultures were pulsed with 1 μCi of [^3H] thymidine from day 2 to day 5 and incorporated radioactivity was determined using a 1450 Microbeta scintillation counter (Wallac, Turku, Finland). The amounts of secreted IL-2 and IFNγ were determined by commercial ELISA, following the manufacturer's instructions (R & D Systems). Flow cytometry was performed with a FACScalibur (BD Biosciences, San Jose, Calif.). […]

peripheral CD8^+ T-cells [3] = experiment: CD8+ lymphocyte proliferation/expansion with K32 aAPCs ([3H] thymidine); type: cell-based, human; conditions: day 5; three independent experiments
Description: as §1

[4] = test system: glucose transporter Glut-1 in peripheral CD8^+ T-cells; experiment: Glut-1 expression in stimulated CD8+ T-cells, flow cytometry; type: cell-based, human; conditions: 20 hr stimulation
Description: CD8^+ lymphocyte stimulation, cytokine release and glucose metabolism analysis. To analyze the effects of Letal on the T-cell proliferation and production of cytokines, a previously described artificial antigen-presenting cell (aAPC) model was used (Maus et al, Nat. Biotechnol. 20:143-148 (2002)). Briefly, the system is based on the stable expression of the human low-affinity Fcγ receptor, CD32, on K562 cells (K32 cell line). K32 cell-based aAPCs were additionally transduced with Letal or with the empty vector as described above, irradiated with 100Gy, and washed twice with RPMI medium. […] Cultures were pulsed with 1 μCi of [^3H] thymidine from day 2 to day 5 and incorporated radioactivity was determined using a 1450 Microbeta scintillation counter (Wallac, Turku, Finland). The amounts of secreted IL-2 and IFN-γ were determined by commercial ELISA, following the manufacturer's instructions (R & D Systems). […]
Letal signaling increases glucose transporter expression and glucose uptake during T-cell activation. […] To test whether Letal may have a similar effect during T-cell activation, peripheral CD8^+ T-cells were stimulated for 20 hr with anti-CD3, anti-CD3/anti-CD28, anti-CD3/Letal, or Letal alone and the expression of the glucose transporter Glut-1 was analyzed by flow cytometry. […]

peripheral CD8^+ T-cells [5] = experiment: Glucose uptake with [3H]-2-deoxyglucose in stimulated CD8+ T-cells; type: cell-based, human; conditions: 20 hr stimulation
Description: as §1, with “stimulation, cytokine release” for “stimulation”, “glucose metabolism analysis.” for “cytokine release.”, “20:143-148” for “20(2):143-148”, “aAPCs” for “&APCs”, “IFN-γ” for “IFNγ”, “Systems).” for “Systems). Flow cytometry was performed with a FACScalibur (BD Biosciences, San Jose, Calif.).”
Glucose uptake rates were next measured with [^3H]-2-deoxyglucose in cells stimulated as described above. […]

peripheral CD8^+ T-cells [6] = experiment: Cisplatin-induced apoptosis of pre-stimulated CD8+ lymphocytes, annexin-V; type: cell-based, human; conditions: pre-stimulated 3 days; 50 μM cisplatin for 17 hr
Protocol: (§2) Apoptosis assay. The percentage of apoptotic cells was determined after 17 h incubation with 50 μM cisplatin or 18 hs exposure to 0.1 μg/ml anti-CD95 mAb (EOS9.1; Pharmingen) by using the TACS annexin-V apoptosis detection kit, according to the manufacturer's instructions (R & D Systems). Fas expression was determined by flow cytometry by using EOS9.1 as a primary Ab and a PE-labeled anti-mouse IgM (R6-60.2; Pharmingen) as a second Ab.
Cytotoxic chemotherapy can, however, deplete tumor-specific effector T-cells (Lee et al, Nat. Med. 5:677-685 (1999)). Because the glycolytic pathway is implicated in lymphocyte survival (Plas et al, Nat. Immunol. 3:515-521 (2002)), a determination was made as to whether Letal could protect T-cells from early apoptotic death induced by genotoxic drugs.

[7] = test system: Fas on peripheral CD8^+ T-cells; experiment: Fas expression on stimulated CD8+ T-cells, flow cytometry; type: cell-based, human; conditions: 4 days stimulation; compared to CD3/CD28 costimulated T-cells
Protocol: as §2
Letal engagement protects CD8^+ T-cells from FasL-induced apoptosis. […] Because ovarian carcinomas express FasL and other lymphocyte-depleting death ligands (Rabinowich et al, J. Clin. Invest. 101:2579-2588 (1998)), the prevalence of FasL expression and its impact on TILs was determined in 42 stage III ovarian carcinoma specimens. Strong FasL immunoreactivity was detected in tumor cells in areas of selected specimens (FIG. 10A), as well as in a proportion of stromal leukocytes. To test whether Letal promotes the generation of activated T-cell subpopulations that are able to resist the pro-apoptotic tumor microenvironment, peripheral CD8^+ T-cells were stimulated for 4 days with CD3/Letal, CD3/CD28, or anti-CD3 alone, and expression of Fas was measured by flow cytometry. […]

[8] = target: T1, Lymphocyte Effector cell Toxicity Activating Ligand (Letal) (human, UniProt Q8TD07 29-263); experiment: flow cytometry, 3 µg/ml NKG2D/Fc on Letal-transduced K562 and SKOV3 cells, detected with anti-human IgG mAb
T1 construct: Expressed from the complete open reading frame by retroviral transduction on K562 and SKOV3 cells; also called ULBP4; RAET1E
T1 sequence: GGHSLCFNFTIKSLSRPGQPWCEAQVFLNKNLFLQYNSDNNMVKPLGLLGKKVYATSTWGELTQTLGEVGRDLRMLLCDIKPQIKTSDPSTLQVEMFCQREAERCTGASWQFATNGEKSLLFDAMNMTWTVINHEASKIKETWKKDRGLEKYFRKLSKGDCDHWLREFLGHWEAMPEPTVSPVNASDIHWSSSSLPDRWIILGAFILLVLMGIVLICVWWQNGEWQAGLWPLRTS
Description: Constructs and generation of antibodies. SKOV3 and K562 cells were transduced using retroviral vector MIGR1, generously provided by Warren Pear (University of Pennsylvania). Letal or mock transductants expressing equivalent levels of the green fluorescent protein were sorted and cultured by standard procedures. […] Anti-human IgG mAb (G18-145; Pharmingen, San Diego, Calif.) was used to detect the chimerical molecule.
Letal is a ligand of NKG2D expressed in a variety of normal tissues. […] Expression of the Letal protein was confirmed on transduced cells, but not on mocked transductants, by flow cytometry using serum of Letal-immunized mice (FIG. 1D). […] To evaluate the binding of NKG2D to transduced Letal, a recombinant soluble NKG2D-Fc fusion protein was used, containing the ectodomain of the immunoreceptor (Phe78 through Val216). […] Treatment with phospholipase C decreased binding of sNKG2D to Letal⁺ K562 cells, although binding was higher than to control cells.

## CC1=C(/C=C/C(C)=C/C=C/C(C)=C/C(=O)O)C(C)(C)CCC1 [retinoic acid]
[1]; maximum, after 72 hr stimulation
  decrease of Letal mRNA expression: 6 fold

## TNF-α
[1]; TNF-α 10 ng/ml, 24 h
  increase of basal Letal mRNA levels: 3 fold

## anti-CD3: anti-CD3 (OKT3) monoclonal antibody loaded on Letal^− K32 aAPCs [reference compound]
[2]
  increase of NKG2D expression: same result than CD3/Letal stimulation
Peripheral CD8^+ T-cells [3]
  fewer CD8^+ cells with CD3 stimulation in the absence of Letal: 29%
[4]
  cells with altered Glut-1 expression: 11%
Peripheral CD8^+ T-cells [5]
  glucose uptake rate: little to no effect
Peripheral CD8^+ T-cells [6]
  apoptosis after cisplatin: higher percentage of apoptotic cells
[7]
  Fas expression: markedly higher

B1: recombinant human NKG2D/Fc chimera (R & D Systems) (Fc fusion, UniProt P26718 78-216, looked up)
chain: FLNSLFNQEVQIPLTESYCGPCPKNWICYKNNCYQFFDESKNWYESQASCMSQNASLLKVYSKEDQDLLKLVKSYHWMGLVHIPTNGSWQWEDGSILSPNLLTIIEMQKGDCALYASSFKGYIENCSTPNTYICMQRTV
notes: range 78-216; Bought reagent; also called NKG2D-Fc protein; recombinant soluble NKG2D-Fc fusion protein; Fc part of the bought chimera not given, detected with anti-human IgG mAb
[8]
  binding result: binds
